Assay results as given in ChEMBL document CHEMBL1133283, “Arylsulfonyl-N,N-diethyl-dithiocarbamates: a novel class of antitumor agents” (Bioorg Med Chem Lett, 2000).

What was measured:
Type in all cases: functional
Conditions in all cases: Homo sapiens
A549 = experiment: In vitro growth inhibition of compound was determined against A549/ATCC cell lines of non-small cell lung cancer
786-0 = experiment: In vitro growth inhibition of compound was determined against […] cell lines of Renal cancer
BT-549 = experiment: In vitro growth inhibition of compound was determined against BT-549 cell lines of Breast cancer
COLO 205 = experiment: In vitro growth inhibition of compound was determined against COLO-205 cell lines of colon cancer
CCRF-CEM = experiment: In vitro growth inhibition of compound was determined against CCRF-CEM cell lines of Leukemia
CAKI-1 = experiment: In vitro growth inhibition of compound was determined against CAKI-1 cell lines of Renal cancer
DU-145 = experiment: In vitro growth inhibition of compound was determined against DU-145 cell lines of Prostate cancer
HCT-15 = experiment: In vitro growth inhibition of compound was determined against HCT-15 cell lines of colon cancer
HOP-92 = experiment: In vitro growth inhibition of compound was determined against HOP-92 cell lines of non-small cell lung cancer
HL-60 = experiment: In vitro growth inhibition of compound was determined against HL-60(TB) cell lines of Leukemia
HCT-116 = experiment: In vitro growth inhibition of compound was determined against HCT116 cell lines of colon cancer
HCC 2998 = experiment: In vitro growth inhibition of compound was determined against HCC2998 cell lines of colon cancer
Hs-578T = experiment: In vitro growth inhibition of compound was determined against Hs 578.T cell lines of Breast cancer
IGROV-1 = experiment: In vitro growth inhibition of compound was determined against IGROVI cell lines of Ovarian cancer
K562 = experiment: In vitro growth inhibition of compound was determined against K-562 cell lines of Leukemia
KM12 = experiment: In vitro growth inhibition of compound was determined against KM12 cell lines of colon cancer
MOLT-4 = experiment: In vitro growth inhibition of compound was determined against MOLT-4 cell lines of Leukemia
LOX IMVI = experiment: In vitro growth inhibition of compound was determined against LOX IMVI cell lines of Melanoma
MDA-MB-435 = experiment: In vitro growth inhibition of compound was determined against MDA-MB-435 cell lines of Breast cancer
MDA-MB-231 = experiment: In vitro growth inhibition of compound was determined against MDA-MB-231/ATCC cell lines of Breast cancer
MDA-N = experiment: In vitro growth inhibition of compound was determined against MDA-Ncell lines of Breast cancer
M14 = experiment: In vitro growth inhibition of compound was determined against M14 cell lines of Melanoma
Malme-3M = experiment: In vitro growth inhibition of compound was determined against MALME-3M cell lines of Melanoma
MCF7 = experiment: In vitro growth inhibition of compound was determined against MCF-7 cell lines of Breast cancer
NCI-H522 = experiment: In vitro growth inhibition of compound was determined against NCI-H522 cell lines of non-small cell lung cancer
NCI-H226 = experiment: In vitro growth inhibition of compound was determined against NCI-H226 cell lines of non-small cell lung cancer
NCI/ADR-RES = experiment: In vitro growth inhibition of compound was determined against NCI/ADR-RES cell lines of Breast cancer
OVCAR-3 = experiment: In vitro growth inhibition of compound was determined against OVCAR-3 cell lines of Ovarian cancer
OVCAR-8 = experiment: In vitro growth inhibition of compound was determined against OVCAR-8 cell lines of Ovarian cancer
OVCAR-4 = experiment: In vitro growth inhibition of compound was determined against OVCAR-4 cell lines of Ovarian cancer
PC-3 = experiment: In vitro growth inhibition of compound was determined against PC-3 cell lines of Prostate cancer
RXF 393 = experiment: In vitro growth inhibition of compound was determined against RXF393 cell lines of Renal cancer
RPMI-8226 = experiment: In vitro growth inhibition of compound was determined against RPMI-8226 cell lines of Leukemia
SF-268 = experiment: In vitro growth inhibition of compound was determined against SF-268 cell lines of CNS cancer
SW-620 = experiment: In vitro growth inhibition of compound was determined against SW-620 cell lines of colon cancer
SF-539 = experiment: In vitro growth inhibition of compound was determined against SF-539 cell lines of CNS cancer
SR = experiment: In vitro growth inhibition of compound was determined against SR cell lines of Leukemia
SN12C = experiment: In vitro growth inhibition of compound was determined against SN12C cell lines of Renal cancer
SF-295 = experiment: In vitro growth inhibition of compound was determined against SF-295 cell lines of CNS cancer
SNB-75 = experiment: In vitro growth inhibition of compound was determined against SNB-75 cell lines of CNS cancer
SK-MEL-28 = experiment: In vitro growth inhibition of compound was determined against SK-MEL-28 cell lines of Melanoma
SK-MEL-5 = experiment: In vitro growth inhibition of compound was determined against SK-MEL-5 cell lines of Melanoma
TK-10 = experiment: In vitro growth inhibition of compound was determined against TK-10 cell lines of Renal cancer
UACC-257 = experiment: In vitro growth inhibition of compound was determined against UACC-257 cell lines of Melanoma
UO-31 = experiment: In vitro growth inhibition of compound was determined against UO-31 cell lines of Renal cancer
U-251 = experiment: In vitro growth inhibition of compound was determined against U251 cell lines of CNS cancer
ACHN = experiment: In vitro growth inhibition of compound was determined against ACHN cell lines of Renal cancer
HOP-62 = experiment: In vitro growth inhibition of compound was determined against HOP-62 cell lines of non-small cell lung cancer

CCN(CC)C(=S)SS(=O)(=O)c1ccc(N)cc1 was tested, and the GI50 (A549) was 7 µM, the GI50 (786-0) was 3 µM and the GI50 (BT-549) was > 100 µM. The GI50 (COLO 205) was > 100 µM, the GI50 (CCRF-CEM) was > 100 µM and the GI50 (CAKI-1) was 22 µM. For the same compound, the GI50 (DU-145) was > 100 µM, the GI50 (HCT-15) was > 100 µM and the GI50 (HOP-92) was 5 µM. For the same compound, the GI50 (HL-60) was > 100 µM, the GI50 (HCT-116) was > 100 µM and the GI50 (HCC 2998) was 8 µM. The GI50 (Hs-578T) was 83 µM, the GI50 (IGROV-1) was 5 µM and the GI50 (K562) was 34 µM. The GI50 (KM12) was 22 µM, the GI50 (MOLT-4) was 2 µM and the GI50 (LOX IMVI) was > 100 µM. The GI50 (MDA-MB-435) was > 100 µM, the GI50 (MDA-MB-231) was > 100 µM and the GI50 (MDA-N) was 65 µM. The GI50 (M14) was 63 µM, the GI50 (Malme-3M) was 46 µM and the GI50 (MCF7) was 5 µM. The GI50 (NCI-H522) was 1 µM, the GI50 (NCI-H226) was 98 µM and the GI50 (NCI/ADR-RES) was > 100 µM. The GI50 (OVCAR-3) was > 100 µM, the GI50 (OVCAR-8) was > 100 µM and the GI50 (OVCAR-4) was > 100 µM. For the same compound, the GI50 (PC-3) was 90 µM, the GI50 (RXF 393) was 22 µM and the GI50 (RPMI-8226) was 22 µM. For the same compound, the GI50 (SF-268) was > 100 µM, the GI50 (SW-620) was > 100 µM and the GI50 (SF-539) was 21 µM. The GI50 (SR) was 3 µM, the GI50 (SN12C) was > 100 µM and the GI50 (SF-295) was > 100 µM. For the same compound, the GI50 (SNB-75) was 48 µM, the GI50 (SK-MEL-28) was > 100 µM and the GI50 (SK-MEL-5) was 13 µM. For the same compound, the GI50 (TK-10) was > 100 µM, the GI50 (UACC-257) was > 100 µM and the GI50 (UO-31) was 80 µM. For the same compound, the GI50 (U-251) was > 100 µM, the GI50 (ACHN) was 61 µM and the GI50 (HOP-62) was 33 µM.
